Reference: US12629405B2, “Ezrin peptide 1 for use in a method of treating COVID-19” ([…], priority 2020, dated 2026)
Ends that are not written are not given here.

Assays:
SARS-COV-2 = experiment: Treatment of COVID-19 patients with Ezrin peptide 1 (individual case reports, Examples 1-6); type: in vivo, human
J-96 Human Cell Line = conditions: cell cultures (Ataullakhanov et al. 2005); cited from earlier work
[1] = tested on: inflammatory cytokine production; conditions: cell cultures; cited from earlier work
Toxicity at high dosages = type: in vivo; conditions: high dosages of 50 mg per kg body weight per day or higher
Procedure: The dosage of Ezrin peptide 1 and its analogues is not particularly critical, as Ezrin peptide 1 and its analogues are not toxic even at high dosages of 50 mg per kg body weight per day or higher. Preferably, Ezrin peptide 1 and its analogues are administered to an adult human in an amount of at least 0.1 mg per day, in particular at least 0.2 mg per day, e.g. in an amount of at least 0.5 mg per day, such as 0.1 to 50 mg per day or 0.2 to 20 mg per day or 0.5 to 10 mg per day. Typically for parental administrations lower dosages will be required than for oral or rectal administration. To achieve a rapid relief of the symptoms of COVID-19 it may be reasonable to administer at least 1 mg per day or at least 2 mg per day but in other cases a lower dosage may be suitable.

With “TEKKRRETVEREKE [Ezrin peptide 1, NH2_Thr-Glu-Lys-Lys-Arg-Arg-Glu-Thr-Val-Glu-Arg-Glu-Lys-Glu_COOH]” the “severe complications such as fibrosis of the lungs” value (SARS-COV-2; Example 1) was “did not occur”, the “course of disease, symptoms” value (SARS-COV-2; Example 1, patient, 0.2 mg s.c. daily, 16.03.2020, 3rd administration) was “increasing symptoms with strong eye pain” and the “course of disease, symptoms” value (SARS-COV-2; Example 1, patient, 0.2 mg s.c. daily, 17.03.2020, 4th administration) was “increasing symptoms with more cough”. For the same sequence, the “course of disease, symptoms” value (SARS-COV-2; Example 1, patient, 0.2 mg s.c. daily, 18.03.2020, 5th administration) was “significant signs of recovery, no eye pain, decreasing fever”, the “course of disease, symptoms” value (SARS-COV-2; Example 1, patient, 0.2 mg s.c. daily, 19.03.2020, 6th administration) was “significant signs of recovery, normal body temperature, no fatigue” and the “course of disease, symptoms” value (SARS-COV-2; Example 1, patient, 0.2 mg s.c. daily, 20.03.2020, 7th administration) was “return of taste, good general condition”. The “course of disease, symptoms” value (SARS-COV-2; Example 1, patient, 0.2 mg s.c. daily, 21.03.2020, 8th administration) was “no signs of illness anymore”, the “course of the disease (duration)” value (SARS-COV-2; Example 1, compared to the course expected for patients of this risk group) was “significantly shorter” and the “severity of symptoms after administration” value (SARS-COV-2; Example 1, compared with what one would have expected in a patient of this risk group) was “significantly lower”. The “course of disease, symptoms” value (SARS-COV-2; Example 2, patient, 2 mg s.c., 25.04.2020, second dose) was “still general weakness, shortness of breath, cough, loss of appetite”, the body temperature (SARS-COV-2; Example 2, patient, 2 mg s.c., 26.04.2020 in the evening, third administration) was 37.5 °C and the “course of disease, symptoms” value (SARS-COV-2; Example 2, patient, 2 mg s.c., 26.04.2020, third administration) was “Still loss of appetite, slight cough”. The “course of disease, symptoms” value (SARS-COV-2; Example 2, patient, 2 mg s.c., 27.04.2020, fourth dose) was “Slight cough, slight headache”, the “course of disease, symptoms” value (SARS-COV-2; Example 2, patient, 2 mg s.c., 28.04.2020, fifth administration) was “Only slight pain of touching the scalp, still slight weakness” and the “course of disease, symptoms” value (SARS-COV-2; Example 2, patient, 2 mg s.c., 30.04.2020, sixth administration) was “Significant improvement of clinical symptoms, normal temperature”. For the same sequence, the “course of disease, symptoms” value (SARS-COV-2; Example 2, patient, 01. to 04.05.2020, after six doses, antibiotic coverage) was “taste completely returned, no more cough, no more fever, clinical well-being”, the “course of disease, symptoms” value (SARS-COV-2; Example 3, patient, 25.12.2020, therapy begun 23.12.2020 with 2 mg/d s.c.) was “significant improvement of cough and general condition” and the “course of disease, symptoms” value (SARS-COV-2; Example 3, patient, after completion of therapy (2 mg/d then 0.2 mg/d for four days, s.c.)) was “No further symptoms”. For the same sequence, the “course of disease, symptoms” value (SARS-COV-2; Example 4, patient, 25.12.2020, therapy begun 23.12.2020 with 2 mg/d s.c.) was “significant improvement of cough and general condition”, the “course of disease, symptoms” value (SARS-COV-2; Example 4, patient, after completion of therapy (2 mg/d two days, 0.2 mg/d four days, s.c.)) was “No further symptoms” and the “course of disease, symptoms” value (SARS-COV-2; Example 5, patient, 26.12.2020, therapy begun 23.12.2020 with 2 mg/d s.c.) was “significant improvement of symptoms”. For the same sequence, the shortness of breath (SARS-COV-2; Example 5, patient, after subsequent 0.2 mg/d s.c. for fourteen days from 15.01.2021) was “No further shortness of breath”, the “course of disease, symptoms” value (SARS-COV-2; Example 6, patient, 14.12.2020, 0.2 mg/d s.c. begun 10.12.2020) was “significant improvement of symptoms” and the “course of disease, symptoms” value (SARS-COV-2; Example 6, patient, 20.12.2020, 0.2 mg/d s.c. for ten days) was “complete recovery of symptoms”. For the same sequence, the anti-viral effect (J-96 Human Cell Line) was “anti-viral effect”, the “production of pro- and inflammatory cytokins (e.g. IL-1, IL-6, TNF-alpha)” value [1] was “reduces” and the “synthesis of alpha- and beta interferons” value [1] was “induces”. For the same sequence, the toxicity (Toxicity at high dosages) was “not toxic”.
